Results: patent publication US20160120915A1, “METHODS FOR MANIPULATING IMMUNE RESPONSES BY ALTERING MICROBIOTA” (NEW YORK UNIVERSITY, priority 2013, published 2016)
Counter-ions that a name gives are not always drawn.

How the values were obtained:
terminal ileum = experiment: PAT: ileal expression by qPCR in 6-week mice; format: in vivo, C57BL/6 mice; settings: 6-week male mice, 3 pulses, vs control
Procedure: Total RNA was extracted from mouse tissues using the RNeasy Mini Kit (Qiagen), according to the manufacturer's instructions. Total RNA was reverse transcribed to cDNA using the Verso™ cDNA Synthesis Kit (Thermo Scientific). To generate standards for expression analysis of each target gene, the cDNA region of interest was PCR-amplified and the PCR product was cloned into pGEM-T easy (Promega). qPCR was performed with LightCycler 480 SYBR Green I Master mix (Roche) and run in a LightCycler 480 system (Roche). Target mRNA was normalized to GAPDH mRNA as an internal control in each sample.
C57BL/6 mice were fed a standard diet after weaning, and exposed to 3 pulses of therapeutic dose antibiotics (Amoxicillin or Tylosin), or no antibiotics, via their drinking water, all before 6 weeks of age. Mice were sacrificed at 6 weeks of age.
The distal ileum (1 cm) without Peyer's Patches was collected from each mouse for RNA extraction and kept in RNAlater (Ambion) overnight at 4° C. Samples were stored at −80° C. until RNA extraction was performed.
Panel A: Mice were exposed to 3 pulses of antibiotics (Amoxicillin or Tylosin), or no antibiotics, via breast milk or drinking water at the indicated time points. Panel B: Male mice, including 5 Control, 4 Amoxicillin, and 6 Tylosin, were fed a normal diet. They were sacrificed at 6 weeks of age and the terminal[1 cm] ileum without Peyer's Patches [TI-] was collected.
Ileal expression of T-bet and IFN-γ [Th1], GATA3 and IL-4 [Th2], Foxp3, and TGFβ1 [Treg], and RORγt, IL-17A, and IL-17F [Th17] (Control n=5, Amoxicillin n=4, Tylosin n=6) was quantitated with qPCR and normalized by GAPDH expression. Expression of T-bet and IFNγ [Th1] (p<0.05) and IL-17A and IL-17F [Th17] […] Foxp3 and RORγt were lower in Tylosin than control. This example extends the earlier observation that continuous antibiotics affect ileal immune cell populations and effectors by showing that pulses are sufficient to produce similar effects.

[1] = test system: intestinal microbial communities; experiment: EL-PAT: 16S rRNA V4 sequencing of fecal, ileal and cecal microbiota; format: in vivo, C57BL/6 mice
Procedure: For the experiments, dams and their litters were divided into control and antibiotic groups. In the EL-PAT study dams in the antibiotic groups received Tylosin tartrate (Sigma Aldrich, St. Louis Mo.) dissolved in distilled deionized water (neutral pH) at a concentration of 0.33 mg/ml, and dams in the control group received non-acidified water. Mice in the PAT3 group received two additional doses of antibiotics at day 27 and 36 of life for 3 days. In some experiments, C57BL/6 mice were exposed to one, PAT1, (n=17, M=9, F=8) or three, PAT3, (n=19, M=10, F=9) doses of the macrolide Tylosin in non-acidified water or non-acidified water alone (control, n=12, M=9, F=3), early-in-life, to mirror pediatric antibiotic exposures. For the first antibiotic pulse […] of Tylosin tartrate (Sigma) was dissolved in 250 ml of non-acidified water and given to PAT1 and PAT3 lactating dams at pup day 5 of life for 5 days. For the second and third pulse, pups received the antibiotic directly at day 27 and day 36 of life respectively, for three days. Mice were sacrificed at 7 weeks of age and fecal, ileal and cecal contents were collected. Throughout the experiment mouse weight and fecal contents were collected. Fecal, ileal and cecal DNA were extracted using Mobio 96-well extraction kit (MO BIO Laboratories, Inc., CA). For amplicon library generation, the V4 region of 16s rRNA gene was amplified with gene specific primers (SEQ ID NOS: 39-43). Amplicons were prepared in triplicate, pooled and quantified. The 254 bp V4 region was sequenced using the Illumina MiSeq 2×150 bp platform (Illumina Inc., CA). Forward and reverse reads were joined using the ea-utils module fastq-join. Demultiplexing and operational taxonomic unit (OTU) picking were performed using the bioinformatic tool Qiime, while pair-end reads were demultiplexed with the script split_libraries_fastq.py. Reads were quality filtered at a phred score of 20 using -q flag, and the flag --rev_comp_mapping allowed reading of the reverse complement barcode before demultiplexing. Open referenced OTU picking was performed using pick_open_reference_otus.py script to assign a taxonomy for each OTU representative sequence and build a phylogenetic tree, and an OTU table. For alpha and beta diversity, samples were rarified at a sequencing depth of 1000.

[2] = PAT3 group, two additional doses
[3] = at sacrifice, six-weeks (PAT1) and one-week (PAT3) after last pulse
[4] = one therapeutic dose, dams and offspring

SMILES: CC[C@H]1OC(=O)C[C@@H](O)[C@H](C)[C@@H](O[C@@H]2O[C@H](C)[C@@H](O[C@H]3C[C@@](C)(O)[C@@H](O)[C@H](C)O3)[C@H](N(C)C)[C@H]2O)[C@@H](CC=O)C[C@@H](C)C(=O)/C=C/C(C)=C/[C@@H]1CO[C@@H]1O[C@H](C)[C@@H](O)[C@@H](OC)[C@H]1OC [Tylosin, Tylosin tartrate]
- ileal expression of Foxp3 (terminal ileum): lower
- ileal expression of RORγt (terminal ileum): lower
- ileal expression of IFNγ [Th1] (terminal ileum; p<0.05): significantly lower
- ileal expression of IL-17A [Th17] (terminal ileum; p<0.05): significantly lower
- ileal expression of IL-17F [Th17] (terminal ileum; p<0.05): significantly lower
- ileal expression of T-bet [Th1] (terminal ileum; p<0.05): significantly lower
- relative abundance of Blautia producta [1, 2]: blooms
- relative abundance of family Enterobacteriaceae [1, 2]: blooms
- ileal evenness [1, 3]: decreases
- ileal richness [1, 3]: decreases
- abundance of Bifidobacterium (ileal, LEfSe) ([1]; early-life PAT): decreases
- abundance of S24-7 (ileal, LEfSe) ([1]; early-life PAT): decreases
- abundance of SFB (ileal, LEfSe) ([1]; early-life PAT): decreases
- relative abundance of Akkermansia muciniphila (ileal, LEfSe) ([1]; early-life PAT): increases
- ileal microbial communities (PCoA, Jenson-Shannon divergence) ([1]; male and female, independent of sex): significantly different from Control
- fecal, cecal and ileal microbial diversity (phylogenetic diversity) ([1]; male pups over time, one or three pulses vs Control): decreases
- intestinal microbial populations (PCoA, weighted Unifrac) ([1]; one and three therapeutic doses early in life, males and females): significantly alters
- Segemented Filamentous Bacteria [1, 4]: loss
- relative abundance of Bacteroides uniformis [1, 4]: blooms
- relative abundance of Akkermansia muciniphila ([1]; one therapeutic dose, dams and offspring, fecal, ileal and cecal samples): blooms
